Values joined by “and” are separate entries in the source; they are usually repeats but may differ in a detail not shown here. Equal entries are not always repeated.
Experiments:
[1] = test system: Puccinia recondita f. sp. tritici; test: Fungicidal activity against Puccinia recondita f. sp. tritici / wheat / leaf disc preventative (brown rust); assay type: in vivo; details: foliar, 168 h, wheat leaf segments cv. Kanzler, inoculated 1 day after application, assessed 7-9 days after application, compared to untreated control
Procedure: Leaf disks or leaf segments of various plant species are cut from plants grown in a greenhouse. The cut leaf disks or segments are placed in multiwell plates (24-well format) onto water agar. The leaf disks are sprayed with a test solution before (preventative) or after (curative) inoculation. Compounds to be tested are prepared as DMSO solutions (max. 10 mg/ml) which are diluted to the appropriate concentration with 0.025% Tween20 just before spraying. The inoculated leaf disks or segments are incubated under defined conditions (temperature, relative humidity, light, etc.) according to the respective test system. A single evaluation of disease level is carried out 3 to 14 days after inoculation, depending on the pathosystem. Percent disease control relative to the untreated check leaf disks or segments is then calculated. Wheat leaf segments cv. Kanzler are placed on agar in multiwell plates (24-well format) and sprayed with the formulated test compound diluted in water. The leaf disks are inoculated with a spore suspension of the fungus 1 day after application. The inoculated leaf segments are incubated at 19° C. and 75% rh under a light regime of 12 h light/12 h darkness in a climate cabinet and the activity of a compound is assessed as percent disease control compared to untreated when an appropriate level of disease damage appears in untreated check leaf segments (7-9 days after application).

[2] = test system: Puccinia recondita f. sp. tritici; test: Fungicidal activity against Puccinia recondita f. sp. tritici / wheat / leaf disc curative (brown rust); assay type: in vivo; details: foliar, 144 h, wheat leaf segments cv. Kanzler, applied 1 day after inoculation, assessed 6-8 days after application, compared to untreated control
Procedure: Leaf disks or leaf segments of various plant species are cut from plants grown in a greenhouse. The cut leaf disks or segments are placed in multiwell plates (24-well format) onto water agar. The leaf disks are sprayed with a test solution before (preventative) or after (curative) inoculation. Compounds to be tested are prepared as DMSO solutions (max. 10 mg/ml) which are diluted to the appropriate concentration with 0.025% Tween20 just before spraying. The inoculated leaf disks or segments are incubated under defined conditions (temperature, relative humidity, light, etc.) according to the respective test system. A single evaluation of disease level is carried out 3 to 14 days after inoculation, depending on the pathosystem. Percent disease control relative to the untreated check leaf disks or segments is then calculated. Wheat leaf segments cv. Kanzler are placed on agar in multiwell plates (24-well format). The leaf segments are inoculated with a spore suspension of the fungus. Plates are stored in darkness at 19° C. and 75% rh. The formulated test compound diluted in water is applied 1 day after inoculation. The leaf segments are incubated at 19° C. and 75% rh under a light regime of 12 h light/12 h darkness in a climate cabinet and the activity of a compound is assessed as percent disease control compared to untreated when an appropriate level of disease damage appears in untreated check leaf segments (6-8 days after application).

[3] = test system: Phakopsora pachyrhizi; test: Fungicidal activity against Phakopsora pachyrhizi / soybean / leaf disc preventative (Asian soybean rust); assay type: in vivo; details: foliar, 288 h, soybean leaf disks, inoculated one day after application, assessed 12-14 days after application, compared to untreated control
Procedure: Leaf disks or leaf segments of various plant species are cut from plants grown in a greenhouse. The cut leaf disks or segments are placed in multiwell plates (24-well format) onto water agar. The leaf disks are sprayed with a test solution before (preventative) or after (curative) inoculation. Compounds to be tested are prepared as DMSO solutions (max. 10 mg/ml) which are diluted to the appropriate concentration with 0.025% Tween20 just before spraying. The inoculated leaf disks or segments are incubated under defined conditions (temperature, relative humidity, light, etc.) according to the respective test system. A single evaluation of disease level is carried out 3 to 14 days after inoculation, depending on the pathosystem. Percent disease control relative to the untreated check leaf disks or segments is then calculated. Soybean leaf disks are placed on water agar in multiwell plates (24-well format) and sprayed with the formulated test compound diluted in water. One day after application leaf discs are inoculated by spraying a spore suspension on the lower leaf surface. After an incubation period in a climate cabinet of 24-36 hours in darkness at 20° C. and 75% rh leaf disc are kept at 20° C. with 12 h light/day and 75% rh. The activity of a compound is assessed as percent disease control compared to untreated when an appropriate level of disease damage appears in untreated check leaf disks (12-14 days after application).

[4] = test system: Glomerella lagenarium (Colletotrichum lagenarium); test: Fungicidal activity against Glomerella lagenarium (Colletotrichum lagenarium), liquid culture / cucumber / preventative (anthracnose); assay type: cell-based; details: Colletotrichum orbiculare, liquid culture (PDB), growth inhibition measured photometrically 3-4 days after application, compared to untreated control
Procedure: Mycelia fragments or conidia suspensions of a fungus, prepared either freshly from liquid cultures of the fungus or from cryogenic storage, are directly mixed into nutrient broth. DMSO solutions of the test compound (max. 10 mg/ml) is diluted with 0.025% Tween20 by a factor of 50 and 10 μl of this solution is pipetted into a microtiter plate (96-well format). The nutrient broth containing the fungal spores/mycelia fragments is then added to give an end concentration of the tested compound. The test plates are incubated in the dark at 24° C. and 96% relative humidity. The inhibition of fungal growth is determined photometrically after 2 to 7 days, depending on the pathosystem, and percent antifungal activity relative to the untreated check is calculated. Conidia of the fungus from cryogenic storage are directly mixed into nutrient broth (PDB potato dextrose broth). After placing a (DMSO) solution of test compound into a microtiter plate (96-well format), the nutrient broth containing the fungal spores is added. The test plates are incubated at 24° C. and the inhibition of growth is measured photometrically 3-4 days after application.

Row | melting point | SMILES | pest or weed control at 200 ppm [1] | pest or weed control at 200 ppm [2] | pest or weed control at 200 ppm [3] | inhibition of growth at 20 ppm [4]
1 | 106 to 107 °C | FC(F)(F)c1nc(-c2ccc(-c3nc(CCl)co3)cc2)no1 [Compound C-4, 3-[4-[4-(chloromethyl)oxazol-2-yl]phenyl]-5-(trifluoromethyl)-1,2,4-oxadiazole] | – | – | ≥ 80% | ≥ 80%
2 | 75 to 80 °C | Fc1ccc(-c2ccc(-c3noc(C(F)(F)F)n3)cc2)cn1 [Compound D-6, 3-[4-(6-fluoro-3-pyridyl)phenyl]-5-(trifluoromethyl)-1,2,4-oxadiazole] | ≥ 80% | ≥ 80% | – | ≥ 80%
3 | 109 to 111 °C | Cc1cc(C)n(-c2ccc(-c3noc(C(F)(F)F)n3)cc2)n1 [Compound E-1, 3-[4-(3,5-dimethylpyrazol-1-yl)phenyl]-5-(trifluoromethyl)-1,2,4-oxadiazole] | ≥ 80% | ≥ 80% | – | ≥ 80%
4 | 69 to 71 °C | CC(=O)OCc1cnc(-c2ccc(-c3noc(C(F)(F)F)n3)cc2)o1 [Compound C-1, [2-[4-[5-(trifluoromethyl)-1,2,4-oxadiazol-3-yl]phenyl]oxazol-5-yl]methyl acetate] | ≥ 80% | ≥ 80% | ≥ 80% | –
5 | 155 to 160 °C | Nc1ccc(-c2ccc(-c3noc(C(F)(F)F)n3)cc2)cn1 [Compound D-12, 5-[4-[5-(trifluoromethyl)-1,2,4-oxadiazol-3-yl]phenyl]pyridin-2-amine] | ≥ 80% | – | ≥ 80% | ≥ 80%
6 | 110 to 111 °C and 109 to 111 °C | Cc1cnc(-c2ccc(-c3noc(C(F)(F)F)n3)cc2)o1 [Compound C-2, 3-[4-(5-methyloxazol-2-yl)phenyl]-5-(trifluoromethyl)-1,2,4-oxadiazole] | ≥ 80% | ≥ 80% | ≥ 80% | –
7 | 105 to 110 °C | Fc1cc(-c2ccc(-c3noc(C(F)(F)F)n3)cc2)ccn1 [Compound D-7, 3-[4-(2-fluoro-4-pyridyl)phenyl]-5-(trifluoromethyl)-1,2,4-oxadiazole] | ≥ 80% | ≥ 80% | – | ≥ 80%

The next lines start with the molecule.

Row | SMILES | melting point | pest or weed control at 200 ppm [1] | pest or weed control at 200 ppm [2] | pest or weed control at 200 ppm [3] | inhibition of growth at 20 ppm [4]
8 | CC1=NOC(c2ccc(-c3noc(C(F)(F)F)n3)cc2)C1 (centres unmarked) [Compound A-4, 3-[4-(3-methyl-4,5-dihydroisoxazol-5-yl)phenyl]-5-(trifluoromethyl)-1,2,4-oxadiazole] | 89 to 92 °C | ≥ 80% | ≥ 80% | ≥ 80% | ≥ 80%
9 | CN(C)C(=O)C(=O)NC1CSC(c2ccc(-c3noc(C(F)(F)F)n3)c(F)c2)=N1 (centres unmarked) [Compound A-24, N-[2-[3-fluoro-4-[5-(trifluoromethyl)-1,2,4-oxadiazol-3-yl]phenyl]-4,5-dihydrothiazol-4-yl]-N′,N′-dimethyl-oxamide] | 120 to 165 °C | ≥ 80% | ≥ 80% | – | ≥ 80%
10 | CC(C)(C)[S+]([O-])NC1CSC(c2ccc(-c3noc(C(F)(F)F)n3)cc2)=N1 (centres unmarked) [Compound A-29, 2-methyl-N-[2-[4-[5-(trifluoromethyl)-1,2,4-oxadiazol-3-yl]phenyl]-4,5-dihydrothiazol-4-yl]propane-2-sulfinamide] | – | ≥ 80% | ≥ 80% | ≥ 80% | ≥ 80%
11 | O=C(C1CC1)N1CCCC1c1ccc(-c2noc(C(F)(F)F)n2)cc1 (centres unmarked) [Compound A-36, cyclopropyl-[2-[4-[5-(trifluoromethyl)-1,2,4-oxadiazol-3-yl]phenyl]pyrrolidin-1-yl]methanone] | – | – | ≥ 80% | ≥ 80% | ≥ 80%
12 | CC1(C)COC(c2ccc(-c3noc(C(F)(F)F)n3)cc2)=N1 [Compound A-2, 3-[4-(4,4-dimethyl-5H-oxazol-2-yl)phenyl]-5-(trifluoromethyl)-1,2,4-oxadiazole] | 70 to 75 °C | ≥ 80% | ≥ 80% | – | ≥ 80%
13 | COCC(=O)NC1CSC(c2ccc(-c3noc(C(F)(F)F)n3)cc2)=N1 (centres unmarked) [Compound A-28, 2-methoxy-N-(2-[4-[5-(trifluoromethyl)-1,2,4-oxadiazol-3-yl]phenyl]-4,5-dihydrothiazol-4-yl]acetamide] | – | ≥ 80% | ≥ 80% | ≥ 80% | ≥ 80%
14 | CS(=O)(=O)N1CCCC1c1ccc(-c2noc(C(F)(F)F)n2)cc1 (centres unmarked) [Compound A-30, 3-[4-(1-methylsulfonyl-pyrrolidin-2-yl)phenyl]-5-(trifluoromethyl)-1,2,4-oxadiazole] | 117.7 to 118.6 °C | ≥ 80% | ≥ 80% | – | ≥ 80%
15 | FC(F)(F)c1nc(-c2ccc(C3CC(C4CC4)=NO3)cc2)no1 (centres unmarked) [Compound A-12, 3-[4-(3-cyclopropyl-4,5-dihydroisoxazol-5-yl)phenyl]-5-(trifluoromethyl)-1,2,4-oxadiazole] | 109 to 112 °C | ≥ 80% | – | ≥ 80% | ≥ 80%
16 | FC(F)(F)c1nc(-c2ccc(C3=NCCO3)cc2)no1 [Compound A-3, 3-[4-(4,5-dihydrooxazol-2-yl)phenyl]-5-(trifluoromethyl)-1,2,4-oxadiazole] | 120 to 125 °C | ≥ 80% | ≥ 80% | ≥ 80% | –
17 | CCOCc1cc(-c2ccc(-c3noc(C(F)(F)F)n3)cc2)no1 [Compound C-5, 3-[4-[5-(ethoxymethyl)isoxazol-3-yl]phenyl]-5-(trifluoromethyl)-1,2,4-oxadiazole] | – | – | – | ≥ 80% | –
18 | CC1(C)COC(c2ccc(-c3noc(C(F)(F)F)n3)cc2)NC1=O (centres unmarked) [Compound A-10, 5,5-dimethyl-2-[4-[5-(trifluoromethyl)-1,2,4-oxadiazol-3-yl]phenyl]-1,3-oxazinan-4-one] | 187.3 to 189 °C | ≥ 80% | – | ≥ 80% | ≥ 80%

From patent publication US11083196B2, “Microbiocidal oxadiazole derivatives” (SYNGENTA PARTICIPATIONS AG, priority 2016, dated 2021)
